In patent US10471076B2, “Compositions and methods to treat vision disorders” (YouHealth Biotech, Limited, priority 2014, dated 2019):
Where “and” joins values, the source holds several entries; their conditions need not be identical. Equal values may be shown once. Entries after “also recorded” stand apart in the source; their conditions may differ.

How the values were obtained:
[1] = system: cataract-causing mutant crystallins; experiment: Western blot of soluble and insoluble fractions of cell lysates; type: cell-based; conditions: human lens progenitor cells, n=3, P<0.001
Description: The cells were harvested and lysed. Supernatant and insoluble fractions were separated by centrifugation and analyzed by western blot analysis. LSS and crystallin fusion proteins were identified by antibodies against Flag and GFP tags, respectively. The lanosterol-treated group is highlighted by red boxes. Cells treated with 1% DMSO were used as a control. β-Actin was used as an internal protein loading control of total cell lysates (TCL). S, supernatant; P, insoluble fraction. […] Crystallin aggregates were formed by incubating 5 mg ml^−1 protein solution at 60° C. for 2 h (α-crystallins) or 37° C. for 48 h (β- and γ-crystallins) in the presence of 1 M guanidine chloride. The preformed aggregates were re-suspended in PBS at a final protein concentration of 0.2 mg ml^−1 and were treated with 500 μM sterols in 500 μM DPPC liposome and incubated at 37° C. for 24 h. […] Aggregates treated with 500 μM DPPC liposome only were used as the controls.
LC-MS analysis. […] The derived samples were analyzed by an Agilent 1290/6460 triple quadrupole LC/MS using an alternative Atmospheric Pressure Chemical Ionisation (APCI) source. […] Quantification of the western blot bands was achieved using the software GELPRO (Media Cybernetics). The presented quantitative data were calculated from three independent experiments.

[2] = system: naturally occurring cataractous lenses from rabbits; experiment: Treatment of isolated cataractous rabbit lenses; parameters: key to cataract grade before treatment / cataract grade after treatment: Grade 0: absence of opacification (gridlines clearly visible); Grade 1: a slight degree of opacification (minimal clouding of gridlines, with gridlines still visible); Grade 2: presence of diffuse opacification involving almost the entire lens (moderate clouding of gridlines, with main gridlines visible); Grade 3: presence of extensive, thick opacification involving the entire lens (total clouding of gridlines, with gridlines not seen at all)
Description: FIG. 12A, FIG. 12B, and FIG. 12C show grading system of cataractous lenses. […] The degree of transparency was scored as 0, a clear lens and absence of opacification (gridlines clearly visible, a′); 1, a blurry lens and a slight degree of opacification (minimal clouding of gridlines, with gridlines still visible, b′); 2, a cloudy lens and presence of diffuse opacification involving almost the entire lens (moderate clouding of gridlines, with main gridlines visible, c′); or 3, an opaque lens and presence of extensive thick opacification involving the entire lens (total clouding of gridlines, with gridlines not seen at all, d′). […] Rabbit lenses (n=13) were dissected and incubated with lanosterol for 6 days and subsequently assessed for lens clarity and transparency. Pairs of photographs of each cataractous rabbit lens showing before and after treatment with scores underneath are shown. […] Dog eyes with cataracts (n=7) were treated with lanosterol for 6 weeks and assessed for lens clarity and transparency. A pair of photographs of each study eye before and after treatment is shown with scores underneath. Three control eyes treated with vehicles alone are also presented.
Treatment of cataractous rabbit lenses. Rabbits were euthanized by CO2 inhalation and lenses were immediately dissected and treated with vehicle or lanosterol dissolved in vehicle to make 25 mM solutions. Lens tissues were incubated in these solutions for 6 days in the dark at room temperature. Cataracts were examined under a microscope and photographed. Degree of cataract was assessed by a blinded examiner using a previously described opacification grading system, shown below^32,33. Improvements in lens clarity and transparency were quantified by visual inspection and grading. Lens clarity was scored by transmission of light, clarity of a grid image underneath the lens (FIG. 12A, FIG. 12B, FIG. 12C), and improvement in overall clarity of a lens or improvement in clarity of localized areas of cortical cataract. Wilcoxon test was used to evaluate the treatment effect.
Cataract grading system. […]

CC(C)=CCC[C@@H](C)[C@H]1CC[C@@]2(C)C3=C(CC[C@]12C)[C@@]1(C)CC[C@H](O)C(C)(C)[C@@H]1CC3 [lanosterol, 3β-Hydroxy-8,24-lanostadiene; 8,24-Lanostadien-3β-ol]
amount of mutant crystallins in the soluble fractions of cell lysates [1]: increased the amounts of mutant crystallins in the soluble fractions; also recorded: increased cataract-causing mutant crystallins in soluble fractions | cataract grade after treatment ([2]; isolated rabbit lens incubated in 25 mM lanosterol solution for 6 days, n=13): 1 and 0 | cataract grade before treatment ([2]; isolated rabbit lens, baseline of each lanosterol-treated sample, n=13): 2 and 1 and 3 | cataract severity / lens clarity ([2]; isolated rabbit lenses, 25 mM lanosterol, 6 days, P<0.003, Wilcoxon Test): strong trend of reduction in cataract severity; also recorded: reduced cataract severity and increased clarity
